These are literature values, as cited in patent US20040202714A1, “Oral pharmaceutical composition” (Daiichi Suntory Pharma Co., Ltd., priority 1999, published 2004).

The test system of series [1] is penicillin-resistant pneumococci (PRSP).
In a further series the test system is Porphyromonas gingivalis. As to conditions: pathogenic bacteria of periodontis.
In another series the test system is Haemophilus influenzae. The settings on record: gram-negative bacteria such as Haemophilus influenzae.
The subject of a further series is genus Bacteroides. The settings on record: anaerobic bacteria such as the genus Bacteroides.
The subject of series [2] is bacterial strains from dental infectious diseases. The settings on record: increasingly resistant strains from dental infectious diseases.
In series [3] the test system is methicillin-sensitive Staphylococcus aureus (MSSA).

Take `C[C@@H](O)[C@H]1C(=O)N2C(C(=O)O)=C([C@H]3CCCO3)S[C@H]12` [Compound 1, sodium (+)-(5R, 6S)-6-[(R)-1-hydroxyethyl]-7-oxo-3-[(R)-2-tetrahydrofuryl]4-thia-1-azabicyclo [3.2.0] hept-2-ene-2-carboxylate 5/2 hydrate]: the antibacterial activity entry (in the series on Streptococcus pneumoniae; in series [1]; in the series with Porphyromonas gingivalis; in the series on Streptococcus pyrogenes; in series [2]; in series [3]) was “potent antibacterial activity” throughout. Besides, the antibacterial activity entry in the series with enterococci and in the series with oral staphylococci was “potent antibacterial activity” each time. Besides, the antibacterial spectrum result in the series on Haemophilus influenzae and in the series with genus Bacteroides was “wide antibacterial spectrum” throughout.
